# Where “and” joins values, the source holds several entries; their conditions need not be identical. Identical values can stand only once.
# Assays:
# [1] = Preclinical efficacy in a mouse model (ED50); assay type: in vivo; details: oral
# Method: […]. Based on the assumptions above, the maximum dose to be administered in this study may range from 500 mg BID to 1500 mg BID.
# [2] = system: NIH-3T3-CCDC6-RET xenograft tumors; assay type: in vivo, mouse
# [3] = Brain migration property: plasma and brain concentration after single oral dose; assay type: in vivo, mouse
# [4] = system: NIH3T3 cells harboring a KIF5B-RET Luc fusion; experiment: Brain metastasis model harboring a KIF5B-RET Luc fusion; assay type: in vivo, mouse
# Text: In this model, NIH3T3 cells harboring a KIF5B-RET Luc fusion (2.5×10^5 cells/mouse) were implanted to brain of athymic nude mice (Charles River Laboratories Japan) at a depth of 3 mm at a position 3-mm anterior and 2-mm right lateral to the lambda. […] The total flux (p/s) in the region of interest of the back and side of the mouse were quantified using Living Image software (PerkinElmer), respectively, and the total photons obtained by adding both of the total flux values were utilized as the luminescence signal. […] The luminescence signals of the mice were measured once a week until the end of the study.
# [5] = system: cell line from a patient who acquired resistance to RXDX-105 (KIF5B-RET fusion); experiment: Growth inhibition, RXDX-105-resistant cell line; assay type: cell-based; details: Homo sapiens, read-out: IC50 growth inhibition
compound,measurement,setting,value
"COCc1ccc(NC(=O)c2c(C#CCN3CCOCC3)n(C3(C)CC3)c3ncnc(N)c23)cc1 [HM06/TAS0953, 4-amino-N-(4-(methoxymethyl)phenyl)-7-(1-methylcyclopropyl)-6-(3-morpholinoprop-1-yn-1-yl)-7H-pyrrolo[2,3-d]pyrimidine-5-carboxamide]",ED50,[1],3 mg/kg/day
same,efficacy compared with vandetanib 100 mg/kg QD,[2]; 50 mg/kg BID or 100 mg/kg QD,more effective than vandetanib
same,tumor growth vs vehicle,[2]; 12.5-100 mg/kg QD or BID,significant reduction in tumor growth at all doses tested
same,animal weight,[2]; any of the doses used,no significant reduction in animal weight
same,"Kp,uu,brain","[3]; 1 hr, individual mice",1.61
same,Unbound Concentration brain,"[3]; 1 hr, individual mice",4.29 μM or nmol/g and 2.33 μM or nmol/g
same,Unbound Concentration plasma,"[3]; 1 hr, individual mice",2.16 μM or nmol/g and 1.45 μM or nmol/g
same,Kp uu at 1 h,"[3]; BALB/cAJcl-nu/nu, mouse, brain / plasma (unbound), oral, individual mice",1.98
same,Kp uu at 1 h,"[3]; BALB/cAJcl-nu/nu, mouse, brain / plasma, non-binding (unbound) concentrations, oral, mean of 2 mice",1.8
same,Kp at 1 h,"[3]; BALB/cAJcl-nu/nu, mouse, brain / plasma, oral, individual mice, Cbrain/Cplasma",1.88
same,Concentration Plasma,"[3]; single oral dose, 1 hr, individual mice",29.3 μM or nmol/g and 19.6 μM or nmol/g
same,Concentration brain,"[3]; single oral dose, 1 hr, individual mice, homogenate x4",55.0 μM or nmol/g and 29.9 μM or nmol/g
same,"tolerability, percent body weight change",[4]; oral BID at the dose tested,tolerated the compound well
same,antitumor efficacy (luminescence),"[4]; oral, 50 mg/kg BID vs vehicle",potent and stable effect
same,survival rate,[4]; vs vehicle control group,higher survival rate
same,IC50,[5],70 nM

# From patent publication US20240000791A1, “Methods of Using 4-Amino-N-[4-(Methoxymethyl)Phenyl]-7-(1-Methylcyclopropyl)-6-(3-Morpholinoprop-1-YN-1-YL)-7H-Pyrrolo[2,3-D]Pyrimidine-5-Carboxamide for the Treatment of Tumors” (Helsinn Healthcare SA, priority 2020, published 2024)
